From US6716858B1, “Methods for inhibiting diabetic complications” (Kansas University Medical Center, priority 1995, dated 2004)

Experiments:
[1] = tested on: AGE formation during uninterrupted glycation of human methemoglobin (Hb) by ribose; assay: Uninterrupted ribose glycation assay, Hb; format: biochemical; conditions: 0.05 M ribose, 3 weeks
Protocol: ELISA detection of AGE products. The general method of Engvall (1981, Methods Enzymol. 70:419-439) was used to perform the ELISA. Typically, glycated protein samples were diluted to approximately 1.5 ug/ml in 0.1 M sodium carbonate buffer of pH 9.5 to 9.7. The protein was coated overnight at room temperature onto 96-well polystyrene plates by pippetting 200 ul of the protein solution in each well (0.3 ug/well). After coating, the protein was washed from the wells with a saline solution containing 0.05% Tween-20. The wells were then blocked with 200 ul of 1% casein in carbonate buffer for 2 h at 37° C. followed by washing. […] In order to minimize background readings, antibodies R479 used to detect glycated RNase were raised against glycated BSA, and antibodies R618 used to detect glycated BSA and glycated Hb were raised against glycated RNase. […] The p-nitrophenylphosphate substrate solution was then added (200 ul/well) to the plates, with the absorbance of the released p-nitrophenolate being monitored at 410 nm with a Dynatech MR 4000 microplate reader.
Uninterrupted ribose glycation assays Bovine serum albumin, ribonuclease A, and human hemoglobin were incubated with ribose at 37° C. in 0.4 M sodium phosphate buffer of pH 7.5 containing 0.02% sodium azide. […] Aliquots were taken and immediately frozen until analyzed by ELISA at the conclusion of the reaction. […]

[2] = Metabolic conversions and bioavailability of pyridoxamine, plasma B6 vitamers by HPLC; format: in vivo, rat; conditions: 25 mg/kg/day pyridoxamine in drinking water, after 48 hours; n=4
Protocol: In addition to the glycated albumin studies, we carried out an investigation of the bioavailability of pyridoxamine when introduced through drinking water, and its possible redistribution into the vitamin B6 pool. Determination of the common B6 vitamers in plasma was carried out by HPLC methods as described below. Rats (n=4) were kept in standard cages as in the other experiments and were given pyridoxamine at 25 mg/kg/day for 48 hours, following which blood samples were withdrawn intra-cardially for serum analysis of the B6 vitamers. The concentrations were compared to endogenous B6 vitamer levels of control rats.
The procedures of Sampson and O° Connor (Nutrition Res. 9:259-272 (1989)) and Sharma and Dakshinamurti (Sampson and O° Connor J Nutr 119:1940-8, (1989) Sharma and Dakshinamurti, J Chromatogr 578:45-51, (1992)) were followed, using a Shimadzu HPLC with RF-551 fluorescence monitor. Excitation was at 328 nm and emission was followed at 393 nm. An Ultremex C18 guard column (30×4.6 mm, 5 micron particle size) (Phenomenex) preceded an Ultremex C18 ion-pair column (octadecylsilane, 150×4.6 mm, 3 micron particle size) (Phenomenex). Solvent A contained 0.033 M phosphoric acid and 0.008 M 1-octanesulfonic acid, adjusted to pH 2.2 with 6 N KOH. Solvent B contained 0.033 M phsophoric acid and 10% (v/v) 2-propanol, adjusted to pH 7.5 with 6 N KOH. […]

## Cc1ncc(CO)c(CN)c1O [pyridoxamine]
[1]
  inhibition of overall kinetics of AGE formation from ribose: showed the greatest inhibition at concentrations of 3 mM and above
[2]
  elevation of plasma pyridoxamine, steady state to endogenous level: approximately 300 fold
